Laboratory results from patent publication US12011444B2, “N-substituted indole derivatives as PGE2 receptor modulators” (Idorsia Pharmaceuticals Ltd, priority 2015, dated 2024).

Legend:
PTRGER4 (EP4) = PTRGER4 (EP4) (Homo sapiens (Human), UniProt P35408); assay: hEP4 b-arrestin assay (PathHunter HEK 293 PTGER4 b-arrestin cells); format: cell-based
How it was run: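 Stably transfected HEK293 cells carrying EP4–ProLink and β-arrestin 2–EA (β-gal fragment complementation), pre-incubated with compound 15 min at 37 °C, then stimulated with PGE2 (20 nM final) for 120 min at 37 °C. Chemiluminescence read after 1 h detection reagent at room temperature; activity per concentration expressed as percent of DMSO control.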

PTGER2 (EP2) = PTGER2 (EP2) (Homo sapiens (Human), UniProt P43116); assay: hEP2 b-arrestin assay (PathHunter HEK 293 PTGER2 b-arrestin cells); format: cell-based
PTGER2 (EP2), sequence (P43116 whole entry, the tested form may be a part): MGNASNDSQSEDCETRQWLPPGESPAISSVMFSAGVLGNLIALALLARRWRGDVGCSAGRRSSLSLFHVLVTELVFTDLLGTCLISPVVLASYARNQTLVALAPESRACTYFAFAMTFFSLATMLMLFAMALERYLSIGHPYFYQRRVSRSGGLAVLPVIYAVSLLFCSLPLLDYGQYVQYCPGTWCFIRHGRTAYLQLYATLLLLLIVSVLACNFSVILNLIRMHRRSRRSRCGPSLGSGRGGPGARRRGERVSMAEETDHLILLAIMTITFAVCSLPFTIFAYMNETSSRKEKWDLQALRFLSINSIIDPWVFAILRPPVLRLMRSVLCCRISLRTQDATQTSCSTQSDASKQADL
How it was run: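 HEK293 cells expressing ProLink-tagged EP2 and EA-fused β-arrestin 2 (enzyme fragment complementation) were seeded 24 h, pre-incubated with compound 15 min at 37 °C, then stimulated with 5 μM PGE2 (final) for 120 min.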

[1] = hEP4 b-arrestin assay (values without asterisk)
[2] = hEP2 b-arrestin assay (values without asterisk)
[3] = antagonistic activity on hEP4, mean where measured multiple times
[4] = antagonistic activity on hEP2, mean where measured multiple times

PTRGER4 (EP4), sequence (P35408 whole entry, looked up, the tested form may be a part): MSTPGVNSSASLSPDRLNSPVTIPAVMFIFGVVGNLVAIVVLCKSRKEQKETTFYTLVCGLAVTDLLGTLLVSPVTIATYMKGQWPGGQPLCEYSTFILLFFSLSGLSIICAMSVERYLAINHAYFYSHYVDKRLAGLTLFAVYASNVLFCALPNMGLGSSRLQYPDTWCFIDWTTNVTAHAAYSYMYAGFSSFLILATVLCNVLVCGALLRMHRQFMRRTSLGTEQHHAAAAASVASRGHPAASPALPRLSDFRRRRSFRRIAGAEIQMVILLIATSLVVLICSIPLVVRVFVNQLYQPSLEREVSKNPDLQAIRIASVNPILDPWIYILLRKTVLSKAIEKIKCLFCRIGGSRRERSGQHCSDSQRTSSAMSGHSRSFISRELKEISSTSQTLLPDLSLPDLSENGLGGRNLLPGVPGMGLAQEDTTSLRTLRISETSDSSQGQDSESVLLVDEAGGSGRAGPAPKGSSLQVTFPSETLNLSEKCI

| SMILES | IC50 (PTRGER4 (EP4); [1]) [nM] | IC50 (PTGER2 (EP2); [2]) [nM] | IC50 (PTRGER4 (EP4); [3]) [nM] | IC50 (PTGER2 (EP2); [4]) [nM] |
| --- | --- | --- | --- | --- |
| CCOc1cc(-c2cc(NCCn3c(C#N)cc4c(OC)ccc(F)c43)ncn2)sc1C(=O)Oc1ccccc1 [Example 1049, 5-{6-[2-(2-Cyano-7-fluoro-4-methoxy-indol-1-yl)-ethylamino]-pyrimidin-4-yl}-3-ethoxy-thiophene-2-carboxylic acid phenyl ester] | 10 | 21 | – | – |
| CCOc1cc(-c2cc(NCCn3c(C#N)cc4c(C)c(F)c(F)cc43)ncn2)sc1C(=O)O [Example 890, 5-{6-[2-(2-Cyano-5,6-difluoro-4-methyl-indol-1-yl)-ethylamino]-pyrimidin-4-yl}-3-ethoxy-thiophene-2-carboxylic acid] | 23 | 2 | – | – |
| CCOc1cc(-c2cc(NCCn3c(C#N)cc4c(C)c(F)c(F)cc43)ncn2)ccc1OCC(=O)O [Example 893, (4-{6-[2-(2-Cyano-5,6-difluoro-4-methyl-indol-1-yl)-ethylamino]-pyrimidin-4-yl}-2-ethoxy-phenoxy)-acetic acid] | 118 | 42 | – | – |
| COc1ccc(F)c2c1cc(C)n2CCNc1cc(-c2ccc(-c3ccn[nH]3)cc2)ncn1 [compound 193, [2-(7-Fluoro-4-methoxy-2-methyl-indol-1-yl)-ethyl]-{6-[4-(2H-pyrazol-3-yl)-phenyl]-pyrimidin-4-yl}-amine] | – | – | 39 | 4 |
| COc1ccc(Cl)c2c1cc(C)n2CCNc1cc(-c2cc(C)c(C(=O)O)c(Cl)c2)ncn1 [compound 155] | – | – | 251 | 55 |
| CCOc1cc(OCCC(=O)O)cc(-c2cc(NCCn3c(C#N)cc4c(OC)ccc(F)c43)ncn2)c1 [Example 926, 3-(3-{6-[2-(2-Cyano-7-fluoro-4-methoxy-indol-1-yl)-ethylamino]-pyrimidin-4-yl}-5-ethoxy-phenoxy)-propionic acid] | 20 | 4 | – | – |
| Cc1cc(F)cc2c1cc(C)n2CCNc1cc(-c2ccc3cnn(C)c3c2)ncn1 [compound 53] | – | – | 350 | 98 |
| Cc1cc(-c2cc(NCCn3c(C)cc4c(C)ccc(F)c43)ncn2)ccc1CO [compound 22] | – | – | 369 | 78 |
| CCSc1cc(-c2cc(NCCn3c(C)cc4ccccc43)ncn2)ccc1C(=O)O [compound 33, 2-Ethylsulfanyl-4-{6-[2-(2-methyl-indol-1-yl)-ethylamino]-pyrimidin-4-yl}-benzoic acid] | – | – | 678 | 3 |
| CNc1cc(-c2cc(NCCn3c(C)cc4c(OC)ccc(Cl)c43)ncn2)ccc1C(=O)O [compound 250] | – | – | 103 | 3 |
| CCOc1cc(-c2cc(NCCn3c(C#N)cc4c(OC)ccc(F)c43)ncn2)ccc1NC(=O)C(=O)O [Example 853, N-(4-{6-[2-(2-Cyano-7-fluoro-4-methoxy-indol-1-yl)-ethylamino]-pyrimidin-4-yl}-2-ethoxy-phenyl)-oxalamic acid] | 1 | 5 | – | – |
| COc1ccc(F)c2c1cc(C#N)n2CCNc1cc(-c2ccc(B(O)O)cc2)ncn1 [Example 989, (4-(6-((2-(2-Cyano-7-fluoro-4-methoxy-1H-indol-1-yl)ethyl)amino)pyrimidin-4-yl)phenyl)boronic acid] | 62 | 67 | – | – |
| CCNc1cc(-c2cc(NCCn3c(C)cc4cccc(C#N)c43)ncn2)ccc1C(=O)O [compound 163] | – | – | 842 | 111 |
| COc1cccc2c1cc(C)n2CCNc1cc(-c2ccc(-c3nnc(C)o3)c(F)c2)ncn1 [compound 300, {6-[3-Fluoro-4-(5-methyl-[1,3,4]oxadiazol-2-yl)-phenyl]-pyrimidin-4-yl}-[2-(4-methoxy-2-methyl-indol-1-yl)-ethyl]-amine] | – | – | 494 | 40 |
| CCOc1cc(-c2cc(NCCn3c(C)cc4c(OC)ccc(F)c43)ncn2)ccc1OC(C)C(=O)O (racemic) [Example 843, rac-2-(2-Ethoxy-4-{6-[2-(7-fluoro-4-methoxy-2-methyl-indol-1-yl)-ethylamino]-pyrimidin-4-yl}-phenoxy)-propionic acid] | 111 | 11 | – | – |
| Cc1cc2c(Cl)ccc(F)c2n1CCNc1cc(-c2cc(Cl)c(C(=O)O)s2)ncn1 [compound 14, 3-Chloro-5-{6-[2-(4-chloro-7-fluoro-2-methyl-indol-1-yl)-ethylamino]-pyrimidin-4-yl}-thiophene-2-carboxylic acid] | – | – | 82 | 4 |
| COc1ccc(F)c2c1cc(C#N)n2CCNc1cc(-c2c(C)nn(C)c2C)ncn1 [Example 998, 7-Fluoro-4-methoxy-1-{2-[6-(1,3,5-trimethyl-1H-pyrazol-4-yl)-pyrimidin-4-ylamino]-ethyl}-1H-indole-2-carbonitrile] | 686 | 48 | – | – |
| COc1cc(F)cc2c1cc(C)n2CCNc1cc(-c2cc(Cl)c(C(=O)O)s2)ncn1 [compound 38, 3-Chloro-5-{6-[2-(6-fluoro-4-methoxy-2-methyl-indol-1-yl)-ethylamino]-pyrimidin-4-yl}-thiophene-2-carboxylic acid] | – | – | 39 | 5 |

| SMILES | IC50 (PTRGER4 (EP4); [1]) [nM] | IC50 (PTGER2 (EP2); [2]) [nM] | IC50 (PTRGER4 (EP4); [3]) [nM] | IC50 (PTGER2 (EP2); [4]) [nM] |
| --- | --- | --- | --- | --- |
| CCOc1cc(-c2cc(NCCn3c(C)cc4c(OC)ccc(F)c43)ncn2)ccc1OCC(=O)O [Example 810, (2-Ethoxy-4-{6-[2-(7-fluoro-4-methoxy-2-methyl-indol-1-yl)-ethylamino]-pyrimidin-4-yl}-phenoxy)-acetic acid] | 28 | 9 | – | – |
| CCNc1cc(-c2cc(NCCn3c(C)cc4c(C)ccc(F)c43)ncn2)ccc1C(=O)O [compound 245] | – | – | 71 | 9 |
| CCOc1cc(-c2cc(NCCn3c(C#N)cc4c(C)cc(F)c(F)c43)ncn2)ccc1C(=O)O [Example 956, 4-{6-[2-(2-Cyano-6,7-difluoro-4-methyl-indol-1-yl)-ethylamino]-pyrimidin-4-yl}-2-ethoxy-benzoic acid] | 37 | 21 | – | – |
| COc1cccc2c1cc(C)n2CCNc1cc(-c2cc(C)c(C(=O)O)s2)ncn1 [compound 51] | – | – | 143 | 3 |
| CNc1cc(-c2cc(NCCn3c(C)cc4c(C)cc(F)cc43)ncn2)ccc1C(=O)O [compound 209] | – | – | 123 | 3 |
| CCCOc1nc(-c2cc(NCCn3c(C)cc4c(OC)ccc(F)c43)ncn2)sc1C(=O)O [Example 1035, 2-{6-[2-(7-Fluoro-4-methoxy-2-methyl-indol-1-yl)-ethylamino]-pyrimidin-4-yl}-4-propoxy-thiazole-5-carboxylic acid] | 29 | 2 | – | – |
| CCc1cc(-c2cc(NCCn3c(C)cc4c(OC)ccc(Cl)c43)ncn2)cc(Cl)c1C(=O)O [compound 345] | – | – | 164 | 89 |
| Cc1ccc(F)c2c1cc(C)n2CCNc1cc(-c2ccc3c(c2)C(C)NC3=O)ncn1 (racemic) [compound 96] | – | – | 572 | 17 |
| CCOc1cc(-c2cc(NCCn3c(C)cc4c(OC)cc(Cl)c(F)c43)ncn2)sc1C(=O)O [Example 864, 5-{6-[2-(6-Chloro-7-fluoro-4-methoxy-2-methyl-indol-1-yl)-ethylamino]-pyrimidin-4-yl}-3-ethoxy-thiophene-2-carboxylic acid] | 5 | 3 | – | – |
| COc1ccc(F)c2c1cc(C#N)n2CCNc1cc(-c2ccc(C(=O)O)c(OCC(C)C)c2)ncn1 [Example 949, 4-{6-[2-(2-Cyano-7-fluoro-4-methoxy-indol-1-yl)-ethylamino]-pyrimidin-4-yl}-2-isobutoxy-benzoic acid] | 14 | 7 | – | – |
| CCNc1csc(-c2cc(NCCn3c(C)cc4c(OC)cc(F)cc43)ncn2)c1 [Example 1070, [6-(4-Ethylamino-thiophen-2-yl)-pyrimidin-4-yl]-[2-(6-fluoro-4-methoxy-2-methyl-indol-1-yl)-ethyl]-amine] | 18 | 10 | – | – |
| Cc1cc(-c2cc(NCCn3c(C)cc4c(C)ccc(F)c43)ncn2)cc(Cl)c1C(=O)O [compound 123, 2-Chloro-4-{6-[2-(7-fluoro-2,4-dimethyl-indol-1-yl)-ethylamino]-pyrimidin-4-yl}-6-methyl-benzoic acid] | – | – | 158 | 30 |
| CCOC(=O)c1csc(-c2cc(NCCn3c(C#N)cc4c(OC)ccc(F)c43)ncn2)c1 [Example 1009, 5-{6-[2-(2-Cyano-7-fluoro-4-methoxy-indol-1-yl)-ethylamino]-pyrimidin-4-yl}-thiophene-3-carboxylic acid ethyl ester] | 11 | 20 | – | – |
| COc1ccc(F)c2c1cc(C)n2CCNc1cc(-c2cc(Cl)c(C(=O)O)s2)ncn1 [compound 114] | – | – | 27 | 4 |
| CCOc1cc(-c2cc(NCCn3c(C)cc4c(OC)ccc(F)c43)ncn2)ccc1C(=O)O [Example 326, 2-ethoxy-4-{6-[2-(7-fluoro-4-methoxy-2-methyl-indol-1-yl)-ethylamino]-pyrimidin-4-yl}-benzoic acid] | – | – | 224 | 18 |
| Cc1cc2ccccc2n1CCNc1cc(-c2ccc3ccncc3c2)ncn1 [compound 133] | – | – | 990 | 29 |
| COc1ccc(F)c2c1cc(C#N)n2CCNc1cc(-c2ccc3[nH]ccc3c2)ncn1 [Example 994, 7-Fluoro-1-{2-[6-(1H-indol-5-yl)-pyrimidin-4-ylamino]-ethyl}-4-methoxy-1H-indole-2-carbonitrile] | 6 | 7 | – | – |
| CCOc1cc(-c2cc(NCCn3c(C)cc4c(OC)ccc(F)c43)ncn2)sc1/C=C/C(=O)O [Example 1016, (E)-3-(3-Ethoxy-5-{6-[2-(7-fluoro-4-methoxy-2-methyl-indol-1-yl)-ethylamino]-pyrimidin-4-yl}-thiophen-2-yl)-acrylic acid] | 5 | 5 | – | – |
